{"source": "patent US9757375B2", "about": "“Compounds that inhibit human DNA ligases and methods of treating cancer” (University of Maryland, Baltimore, priority 2007, dated 2017)", "key": {"HCT116 cells": {"tested_on": "HCT116 cells", "assay": "Screen for potentiation of DNA damaging agents (MMS, camptothecin, cis-platinum, 3 aminobenzamide, ionizing radiation)", "assay_type": "cell-based, human", "settings": "for MMS: Ratios of IC50 HCT116: compound alone vs combination with MMS (100 μM); for MMS: Ratios of IC50 HCT116 / IC50 ratios of non- and 3-AB treated cells HCT116: 1 = no sensitization; for IC50 ratios of non- and 3-AB treated cells HCT116: compound alone vs combination with 3-AB (2 mM)", "text": "The 192 human DNA ligase inhibitors were screened in parallel for effects on proliferation and the ability to potentiate the effects of several DNA damaging agents using two cell human lines, a colon cancer line HCT116 and a normal breast epithelial cell line MCF10A using a Biomek FX Laboratory Automation Workstation as described (23). The DNA damaging agents used, methyl methanesulfonate (MMS), camptothecin, cis-platinum, 3 aminobenzamide and ionizing radiation, are representatives of classes of agents used to treat cancer. Briefly, HCT116 and MCF10A cells were plated in 96 well plates such that the cultures were about 80% confluent after 5 days incubation. Compounds were added to the cultures at either 15 μM or 50 μM 1 day after plating. After incubation for 3 days, cell lysed in a solution containing 1.2% Igepal CA-630 and SYBR green that stains DNA (1:1000, Molecular Probes, Eugene, Oreg.). Subsequently, fluorescence was measured per well. The studies with DNA damaging agents were performed as follows. […] For ionizing radiation, cells were pre-incubated with the compounds at 50 μM for 1 hour prior to exposure to 2 gray of ionizing radiation. Cultures were incubated for 3 days and then treated as above."}, "hLigIV/XRCC4": {"target": "hLigIV/XRCC4 (Homo sapiens, UniProt P49917)", "sequence (P49917 whole entry)": "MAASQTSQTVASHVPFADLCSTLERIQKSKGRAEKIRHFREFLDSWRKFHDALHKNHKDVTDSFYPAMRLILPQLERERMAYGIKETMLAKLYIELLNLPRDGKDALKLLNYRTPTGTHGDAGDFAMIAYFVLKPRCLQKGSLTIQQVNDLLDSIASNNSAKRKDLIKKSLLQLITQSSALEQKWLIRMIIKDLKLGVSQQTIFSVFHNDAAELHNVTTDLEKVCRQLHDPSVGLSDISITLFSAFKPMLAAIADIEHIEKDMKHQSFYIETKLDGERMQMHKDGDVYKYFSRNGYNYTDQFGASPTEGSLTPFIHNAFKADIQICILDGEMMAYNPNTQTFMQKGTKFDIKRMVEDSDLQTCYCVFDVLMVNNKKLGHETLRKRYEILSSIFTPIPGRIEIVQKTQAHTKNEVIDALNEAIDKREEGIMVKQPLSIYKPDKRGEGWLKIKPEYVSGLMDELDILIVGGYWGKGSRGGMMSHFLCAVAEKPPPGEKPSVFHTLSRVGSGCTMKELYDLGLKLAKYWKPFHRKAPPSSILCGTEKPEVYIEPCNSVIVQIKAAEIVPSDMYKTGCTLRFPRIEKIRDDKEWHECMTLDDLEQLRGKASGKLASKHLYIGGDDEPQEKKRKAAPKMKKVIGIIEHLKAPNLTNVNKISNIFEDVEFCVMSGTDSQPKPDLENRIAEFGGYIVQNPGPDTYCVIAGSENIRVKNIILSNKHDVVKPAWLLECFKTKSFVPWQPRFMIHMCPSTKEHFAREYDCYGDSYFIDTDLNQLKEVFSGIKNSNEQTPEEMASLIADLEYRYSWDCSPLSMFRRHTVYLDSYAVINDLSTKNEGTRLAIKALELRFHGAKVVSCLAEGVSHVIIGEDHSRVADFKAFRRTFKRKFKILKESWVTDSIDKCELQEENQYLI", "sequence (Q13426 whole entry partner)": "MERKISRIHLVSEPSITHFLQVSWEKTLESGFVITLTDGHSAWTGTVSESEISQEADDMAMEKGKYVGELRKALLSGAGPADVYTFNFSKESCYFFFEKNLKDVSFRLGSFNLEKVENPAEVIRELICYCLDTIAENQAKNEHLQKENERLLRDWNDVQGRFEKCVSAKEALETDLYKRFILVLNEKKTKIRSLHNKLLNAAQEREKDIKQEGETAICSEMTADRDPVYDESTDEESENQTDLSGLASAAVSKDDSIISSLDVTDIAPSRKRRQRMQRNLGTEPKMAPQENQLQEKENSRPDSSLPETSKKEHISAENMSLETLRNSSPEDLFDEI", "assay": "Radioactive gel-based DNA ligation assay", "assay_type": "biochemical", "set-up": "concentration or dose not given beside the values"}, "HeLa cell extract": {"tested_on": "HeLa cell extract", "assay": "Cell extract assay of nonhomologous end-joining (1 kb cohesive-ended fragment)", "assay_type": "biochemical, human", "settings": "100 μmol/L (also 25 μM in the source), FIG. 4C", "method": "Extracts were prepared from human cervical cancer HeLa cells as described previously (27, 31). For base excision repair (BER) assays, the extraction buffer contained 100 mmol/L of KCl, whereas for nonhomologous end-joining (NHEJ) assays, extraction buffer contained 400 mmol/L of KCl. Where indicated, DNA ligases were immunodepleted from the extracts as described (32) using protein A or G Sepharose beads (GE Healthcare) and anti-Lig1, anti-LigIII (GeneTex), or anti-LigIV (ABCAM) antibodies. Depletion was confirmed by immunoblotting.\nTo assay NHEJ (24), a 1 kb end-labeled BamHI fragment (0.1 pmol; (33)). and 20 μg of extract were incubated in ligation buffer (final volume, 20 μL), for 120 min at 25° C. either in the presence or absence of ligase inhibitors (100 μmol/L). DNA fragments were resolved by separation through a 0.8% agarose gel. Labeled DNA fragments were detected in the dried gel by phosphorImager analysis (Molecular Dynamics).\nLinear DNA molecules with short complementary single strand overhangs are repaired by non-homologous end joining that is completed by DNA ligase IV (27). A HeLa extract was incubated with a labeled linear cohesive-ended 1 kb fragment with cohesive ends repair in the absence or presence of Compounds 67, 82 and 189 (25 μM).). Lane 7, DNA ligase I was immunodepleted from the extract prior to the assay. […], DNA ligase III was immunodepleted from the extract prior to the assay. […], DNA ligase IV was immunodepleted from the extract prior to the assay. After separation by native agarose gel electrophoresis, the linear DNA substrate, re-circularized substrate and dimers trimers etc of the 1 kb substrate were detected by phosphorimaging (27). […]"}, "[1]": {"tested_on": "Human DNA ligases I, III and IV and T4 DNA ligase", "assay": "Step 3 of the ligation reaction: ligation of preadenylated nick by non-adenylated ligase", "assay_type": "biochemical", "settings": "for Mechanism: ligation step inhibited (3rd step): Table 5A", "method": "To analyze step 3 of the ligation reaction, an adenylated labeled version of the 18-mer was prepared as described (24). The DNA substrate containing a preadenylated nick (0.5 pmol) and hLigI (0.05 pmol), hLigIIIβ (0.05 pmol), hLigIV/XRCC4 (0.1 pmol), or T4 DNA ligase (0.05 pmol) were incubated in ligation buffer without ATP, either in the presence or absence of the ligase inhibitors (100 μmol/L). Reactions were stopped by the addition of an equal volume of gel loading dye (95% formamide, 0.05% bromophenol blue, and 0.05% xylene cyanol). After heating at 95° C. for 5 min, DNA was separated by denaturing polyacrylamide gel electrophoresis. Labeled oligonucleotides were detected and quantitated in the dried gel by phosphorImager analysis (Molecular Dynamics).\nSince the final two steps of the ligation reaction involve interactions with DNA, we examined the effects of the ligase inhibitors on the second (FIG. 3B) (The labeled ligase-adenylate form of human DNA ligases I, III and IV and T4 DNA ligase were incubated with a linear DNA substrate containing a single non-ligatable nick in the absence or presence of compounds 67, 82 and 189 (100 μM). After separation by denaturing gel electrophoresis, the labeled DNA-AMP complex was detected by phosphorimaging (26)) and third steps (FIG. 3C) of the ligation reaction using established assays (25,26) (Non-adenylated human DNA ligases I, III and IV and T4 DNA ligase were incubated with labeled DNA-AMP in the absence or presence of compounds 67, 82 and 189 (100 μM). After separation by denaturing gel electrophoresis, labeled ligated DNA was detected by phosphorimaging (25))."}, "HCT116 and MCF10A cells": {"tested_on": "HCT116 and MCF10A cells", "assay": "Cell proliferation screen, result stated for one or both cell lines", "assay_type": "cell-based", "settings": "Homo sapiens, read-out: IC50 of inhibition of proliferation"}}, "note": "Marks after values point to notes of the source that are not given here."}
{"smiles": "O=C(O)CSc1cc(Cl)c2nonc2c1[N+](=O)[O-]", "note": "[Compound 64]", "values": [{"measurement": "MMS: Ratios of IC50 HCT116", "setting": "HCT116 cells", "value": "2**"}, {"measurement": "% activity Inhibition hLigIV gel", "setting": "hLigIV/XRCC4", "value": 66, "unit": "%"}]}
{"smiles": "Cc1c(Br)cc(NCC(=O)N/N=C\\c2cc([N+](=O)[O-])ccc2O)cc1Br", "note": "[Compound 67]", "values": [{"measurement": "IC50 ratios of non- and 3-AB treated cells HCT116", "setting": "HCT116 cells", "value": 1}, {"measurement": "MMS: Ratios of IC50 HCT116", "setting": "HCT116 cells", "value": 1.4}, {"measurement": "joining of linear DNA molecules (non-homologous end joining)", "setting": "HeLa cell extract", "value": "had no effect"}, {"measurement": "Mechanism: ligation step inhibited (3rd step)", "setting": "[1]", "value": 3, "unit": "rd step"}, {"measurement": "IC50", "setting": "HCT116 and MCF10A cells", "value": "< 20", "unit": "µM"}]}
{"smiles": "O=c1[nH]ncc(N/N=C\\c2ccc(O)c([N+](=O)[O-])c2)c1Cl", "note": "[Compound 82]", "values": [{"measurement": "joining of linear DNA molecules (non-homologous end joining)", "setting": "HeLa cell extract", "value": "had no effect"}, {"measurement": "inhibition of step 3 of the ligation reaction", "setting": "[1]; 100 μM, FIG. 3C", "value": "inhibit step 3"}, {"measurement": "Mechanism: ligation step inhibited (3rd step)", "setting": "[1]", "value": 3, "unit": "rd step"}]}
{"smiles": "O=C(Cn1cnc([N+](=O)[O-])n1)N/N=C/c1ccc(O)cc1O", "note": "[Compound 151]", "values": [{"measurement": "MMS: Ratios of IC50 HCT116", "setting": "HCT116 cells", "value": 1.7}, {"measurement": "Radiosensitizers: IC50 ratios HCT116", "setting": "HCT116 cells; ionizing radiation", "value": 2}, {"measurement": "IC50", "setting": "HCT116 and MCF10A cells", "value": "< 20", "unit": "µM"}]}
{"smiles": "O=C1Nc2ccccc2Oc2cc([N+](=O)[O-])cc([N+](=O)[O-])c21", "note": "[Compound 180]", "values": [{"measurement": "IC50", "setting": "HCT116 and MCF10A cells", "value": "< 20", "unit": "µM"}]}
{"smiles": "Nc1nc(S)nc(O)c1/N=C/c1ccccc1", "note": "[Compound 189]", "values": [{"measurement": "% activity Inhibition hLigIV gel", "setting": "hLigIV/XRCC4", "value": 80, "unit": "%"}, {"measurement": "joining of linear DNA molecules (non-homologous end joining)", "setting": "HeLa cell extract", "value": "reduced joining of the linear DNA molecules"}, {"measurement": "Mechanism: ligation step inhibited (3rd step)", "setting": "[1]", "value": 3, "unit": "rd step"}]}
{"smiles": "Cc1oc(C(=O)O)cc1CSCc1cc(C(=O)O)c(C)o1", "note": "[Compound 197]", "values": [{"measurement": "% activity Inhibition hLigIV gel", "setting": "hLigIV/XRCC4", "value": 100, "unit": "%"}, {"measurement": "Mechanism: ligation step inhibited (3rd step)", "setting": "[1]", "value": 3, "unit": "rd step"}]}
{"smiles": "O=C(c1ccc(O)cc1)c1ccccc1O", "note": "[Compound 200]", "values": [{"measurement": "IC50 ratios of non- and 3-AB treated cells HCT116", "setting": "HCT116 cells", "value": "ID (1)"}, {"measurement": "MMS: Ratios of IC50 HCT116", "setting": "HCT116 cells", "value": "ID (1)"}]}
